According to ChEMBL document CHEMBL1144195, “Synthesis and antitumor activity of C-9 epimers of the tetrahydrofuran containing acetogenin 4-deoxyannoreticuin” (2008):
≈ marks a conversion by molar mass, not a printed value.

What was measured:
[1] = tested on: Jurkat; assay: Cytotoxicity against human Jurkat cells after 72 hrs by MTS method; assay type: functional
[2] = tested on: PC-3; assay: Cytotoxicity against human PC-3 cells after 72 hrs by MTS method; assay type: functional; conditions: PC-3, 72 h

## CCCCCCCCCCCC[C@@H](O)[C@H]1CC[C@H]([C@H](O)CCCCC[C@H](O)CCCCCCC2=C[C@H](C)OC2=O)O1
[1]
  GI50: 5 µg/mL (≈ 8.61 µM)
[2]
  GI50: 15 µg/mL (≈ 25.8 µM)

## CCCCCCCCCCCC[C@@H](O)[C@H]1CC[C@H]([C@H](O)CCCCC[C@@H](O)CCCCCCC2=C[C@H](C)OC2=O)O1
[1]
  GI50: 5 µg/mL (≈ 8.61 µM)
[2]
  GI50: 10 µg/mL (≈ 17.2 µM)
